According to US9650340B2, “5-fluoro-N-(pyridin-2-yl)pyridin-2-amine derivatives containing a sulfoximine group” (BAYER PHARMA AKTIENGESELLSCHAFT, priority 2012, dated 2017):
Structures can show the parent of a compound that is named as a salt.

Columns and labels:
[1] = molecular target: T1, CDK2/CycE (Homo sapiens, UniProt P24941); experiment: CDK2/CycE kinase assay (TR-FRET, 10 μM ATP); format: biochemical; details: Method 2 (2a)
T1 construct: GST; purchased ProQinase GmbH (Freiburg, Germany); host or cells: insect cells (Sf9)
From the text: 2a. CDK2/CycE Kinase Assay:
CDK2/CycE-inhibitory activity of compounds of the present invention was quantified employing the CDK2/CycE TR-FRET assay as described in the following paragraphs:
(§1) Recombinant fusion proteins of GST and human CDK2 and of GST and human CycE, expressed in insect cells (Sf9) and purified by Glutathion-Sepharose affinity chromatography, were purchased from ProQinase GmbH (Freiburg, Germany). As substrate for the kinase reaction biotinylated peptide biotin-Ttds-[…] (C-terminus in amid form) was used which can be purchased e.g. form the company JERINI Peptide Technologies (Berlin, Germany).
(§2) For the assay 50 nl of a 100 fold concentrated solution of the test compound in DMSO was pipetted into a black low volume 384 well microtiter plate (Greiner Bio-One, Frickenhausen, Germany), 2 μl of a solution of CDK2/CycE in aqueous assay buffer [50 mM Tris/HCl pH 8.0, 10 mM MgCl2, 1.0 mM dithiothreitol, 0.1 mM sodium ortho-vanadate, 0.01% (v/v) Nonidet-P40 (Sigma)] were added and the mixture was incubated for 15 min at 22° C. to allow pre-binding of the test compounds to the enzyme before the start of the kinase reaction. Then the kinase reaction was started by the addition of 3 μl of a solution of adenosine-tri-phosphate (ATP, 16.7 μM=>final conc. in the 5 μl assay volume is 10 μM) and substrate (1.25 μM=>final conc. in the 5 μl assay volume is 0.75 μM) in assay buffer and the resulting mixture was incubated for a reaction time of 25 min at 22° C. The concentration of CDK2/CycE was adjusted depending of the activity of the enzyme lot and was chosen appropriate to have the assay in the linear range, typical concentrations were in the range of 130 ng/mL The reaction was stopped by the addition of 5 μl of a solution of TR-FRET detection reagents (0.2 μM streptavidine-XL665 [Cisbio Bioassays, Codolet, France] and 1 nM anti-RB(pSer807/pSer811)-antibody from BD Pharmingen [#558389] and 1.2 nM LANCE EU-W1024 labeled anti-mouse IgG antibody [Perkin-Elmer, product no. AD0077]) in an aqueous EDTA-solution (100 mM EDTA, 0.2% (w/v) bovine serum albumin in 100 mM HEPES/NaOH pH 7.0).
(§3) The resulting mixture was incubated 1 h at 22° C. to allow the formation of complex between the phosphorylated biotinylated peptide and the detection reagents. Subsequently the amount of phosphorylated substrate was evaluated by measurement of the resonance energy transfer from the Eu-chelate to the streptavidine-XL. Therefore, the fluorescence emissions at 620 nm and 665 nm after excitation at 350 nm was measured in a TR-FRET reader, e.g. a Rubystar (BMG Labtechnologies, Offenburg, Germany) or a Viewlux (Perkin-Elmer). The ratio of the emissions at 665 nm and at 622 nm was taken as the measure for the amount of phosphorylated substrate.

[2] = molecular target: T1, CDK2/CycE; experiment: CDK2/CycE high ATP kinase assay (TR-FRET, 2 mM ATP); format: biochemical; details: Method 2b
Description: 2b. CDK2/CycE High ATP Kinase Assay:
CDK2/CycE-inhibitory activity of compounds of the present invention at 2 mM adenosine-tri-phosphate (ATP) was quantified employing the CDK2/CycE TR-FRET (TR-FRET=Time Resolved Fluorescence Energy Transfer) assay as described in the following paragraphs.
as §1, with “were purchase” for “were purchased”, “JERINI peptide technologies” for “JERINI Peptide Technologies”
as §2, with “ATP (3.33 mM=>final” for “of adenosine-tri-phosphate (ATP, 16.7 μM=>final”, “2 mM)” for “10 μM)”, “15 ng/ml.” for “130 ng/mL”, “AD0077, as an alternative a Terbium-cryptate-labeled anti-mouse IgG antibody from Cisbio Bioassays can be used])” for “AD0077])”
as §3, with “350 nm were measured in” for “350 nm was measured in”

Row | SMILES | IC50 [1] | IC50 [2]
1 | COc1cc(F)ccc1-c1cc(Nc2cc(CS(C)(=N)=O)cc(C(F)F)n2)ncc1F (racemic) [Example 31, (rac)-N-{6-(Difluoromethyl)-4-[(S-methylsulfonimidoyl)methyl]pyridin-2-yl}-5-fluoro-4-(4-fluoro-2-methoxyphenyl)pyridin-2-amine] | 10 nM | 229 nM
2 | COc1cc(F)ccc1-c1cc(Nc2cc(CS(C)(=O)=NC#N)ccn2)ncc1F (single isomer, unassigned) [Example 10, {[(2-{[5-Fluoro-4-(4-fluoro-2-methoxyphenyl)pyridin-2-yl]amino}pyridin-4-yl)methyl](methyl)oxido-λ^6-sulfanylidene}cyanamide] | 72 nM | 1420 nM
3 | COc1cc(F)ccc1-c1cc(Nc2cc(CS(C)(=N)=O)ccn2)ncc1F (single isomer, unassigned; (+)) [Example 2, (+)-5-Fluoro-4-(4-fluoro-2-methoxyphenyl)-N-{4-[(S-methylsulfonimidoyl)methyl]pyridin-2-yl}pyridin-2-amine] | 360 nM | 2920 nM
4 | COc1cc(F)ccc1-c1cc(Nc2cc(CS(C)(=N)=O)cc(C(F)(F)F)n2)ncc1F (single isomer, unassigned; (+)) [Example 22, (+)-5-Fluoro-4-(4-fluoro-2-methoxyphenyl)-N-{4-[(S-methylsulfonimidoyl)methyl]-6-(trifluoromethyl)pyridin-2-yl}pyridin-2-amine] | 18 nM | 233 nM
5 | COc1cc(F)ccc1-c1cc(Nc2cc(CS(C)(=O)=NC(=O)C(F)(F)F)cc(C(F)(F)F)n2)ncc1F (single isomer, unassigned; (+)) [Example 24, (+)-2,2,2-Trifluoro-N-[{[2-{[5-fluoro-4-(4-fluoro-2-methoxyphenyl)pyridin-2-yl]amino}-6-(trifluoromethyl)-pyridin-4-yl]methyl}(methyl)oxido-λ^6-sulfanylidene]acetamide] | 250 nM | 4000 nM
6 | COc1cc(F)ccc1-c1cc(Nc2cc(CS(C)(=N)=O)cc(C)n2)ncc1F (single isomer, unassigned; (+)) [Example 32, (+)-5-Fluoro-4-(4-fluoro-2-methoxyphenyl)-N-{6-methyl-4-[(S-methylsulfonimidoyl)methyl]pyridin-2-yl}pyridin-2-amine] | 120 nM | 1120 nM
7 | COc1cc(F)ccc1-c1cc(Nc2cc(CS(C)(=N)=O)ccn2)ncc1F (single isomer, unassigned; (-)) [Example 3, (−)-5-Fluoro-4-(4-fluoro-2-methoxyphenyl)-N-{4-[(S-methylsulfonimidoyl)methyl]pyridin-2-yl}pyridin-2-amine] | 240 nM | 2490 nM
8 | COc1cc(F)ccc1-c1cc(Nc2cc(CS(C)(=N)=O)cc(C(F)(F)F)n2)ncc1F (single isomer, unassigned; (-)) [Example 23, (−)-5-Fluoro-4-(4-fluoro-2-methoxyphenyl)-N-{4-[(S-methylsulfonimidoyl)methyl]-6-(trifluoromethyl)pyridin-2-yl}pyridin-2-amine] | 22 nM | 283 nM
9 | COc1cc(F)ccc1-c1cc(Nc2cc(CS(C)(=O)=NC(=O)C(F)(F)F)cc(C(F)(F)F)n2)ncc1F (single isomer, unassigned; (-)) [Example 25, (−)-2,2,2-Trifluoro-N-[{[2-{[5-fluoro-4-(4-fluoro-2-methoxyphenyl)pyridin-2-yl]amino}-6-(trifluoromethyl)-pyridin-4-yl]methyl}(methyl)oxido-λ^6-sulfanylidene]acetamide] | 110 nM | 2640 nM
10 | COc1cc(F)ccc1-c1cc(Nc2cc(CS(C)(=N)=O)ccn2)ncc1F (single isomer, unassigned; enantiomer 1) [Example 16, 5-Fluoro-4-(4-fluoro-2-methoxyphenyl)-N-{4-[(S-methylsulfonimidoyl)methyl]pyridin-2-yl}pyridin-2-amine hydrochloride; enantiomer 1] | 430 nM | 5150 nM

Now from value to compound:

Row | IC50 [1] | IC50 [2] | SMILES
11 | 94 nM | 1370 nM | COc1cc(F)ccc1-c1cc(Nc2cc(CS(C)(=N)=O)cc(F)n2)ncc1F (single isomer, unassigned; (+)) [Example 19, (+)-5-Fluoro-4-(4-fluoro-2-methoxyphenyl)-N-{6-fluoro-4-[(S-methylsulfonimidoyl)methyl]pyridin-2-yl}pyridin-2-amine]
12 | 120 nM | 1170 nM | CCOc1cc(F)ccc1-c1cc(Nc2cc(CS(C)(=N)=O)cc(F)n2)ncc1F (single isomer, unassigned; (+)) [Example 28, (+)-4-(2-Ethoxy-4-fluorophenyl)-5-fluoro-N-{6-fluoro-4-[(S-methylsulfonimidoyl)methyl]pyridin-2-yl}pyridin-2-amine]
13 | 72 nM | 815 nM | COc1cc(F)ccc1-c1cc(Nc2cc(CS(C)(=N)=O)cc(F)n2)ncc1F (single isomer, unassigned; (-)) [Example 20, (−)-5-Fluoro-4-(4-fluoro-2-methoxyphenyl)-N-{6-fluoro-4-[(S-methylsulfonimidoyl)methyl]pyridin-2-yl}pyridin-2-amine]
14 | 98 nM | 1710 nM | CCOc1cc(F)ccc1-c1cc(Nc2cc(CS(C)(=N)=O)cc(F)n2)ncc1F (single isomer, unassigned; (-)) [Example 29, (−)-4-(2-Ethoxy-4-fluorophenyl)-5-fluoro-N-{6-fluoro-4-[(S-methylsulfonimidoyl)methyl]pyridin-2-yl}pyridin-2-amine]
15 | 67 nM | 680 nM | COc1cc(F)ccc1-c1cc(Nc2cc(CS(C)(=N)=O)cc(C)n2)ncc1F (single isomer, unassigned; (-)) [Example 33, (−)-5-Fluoro-4-(4-fluoro-2-methoxyphenyl)-N-{6-methyl-4-[(S-methylsulfonimidoyl)methyl]pyridin-2-yl}pyridin-2-amine]
